Measured values from patent US8318792B2, “Therapeutic agent for amyotrophic lateral sclerosis” (Nippon Medical School Foundation, priority 2006, dated 2012).

Assays:
G1H-G93A transgenic mice [1] = assay: Clinical symptomatological evaluation (day of onset, survival period, disease period, stage periods); format: in vivo, mouse; conditions: for time periods for the respective stages in comparison to placebo group / disease period extending effect in comparison to placebo group / onset delaying effect in comparison to placebo group / survival period extending effect in comparison to placebo group: Mann-Whitney's U test; for disease period extending effect in comparison to placebo group / onset delaying effect in comparison to placebo group / survival period extending effect in comparison to placebo group: log-rank test; for day of onset / disease period / survival period / time period of clinical symptomatological stage 1 / time period of clinical symptomatological stage 2 / time period of clinical symptomatological stage 3 / time period of clinical symptomatological stage 4 / time period of clinical symptomatological stage 5: average±SD
Experimental: 1) The procedure of concentration adjustment, and the amount and the procedure of administration of the compound (a) were as described below. As a base, 0.5% methylcellulose is prepared. 5 mg of the compound (a) is pulverized in an agate mortar, and then a small amount of 0.5% methylcellulose is added to form a complete suspension. Subsequently, a small amount of 0.5% methylcellulose is added gradually, so that finally 5 mg of the compound (a) is suspended in 10 mL of 0.5% methylcellulose. A sample of 5 mg of compound (a)/10 mL of 0.5% methylcellulose (5 mg/10 mL) was prepared by the above-described procedure, and thus the compound (a) was orally administered once a day in a dose of 5 mg per kg of the mouse body weight (5 mg/kg).
As the experimental animal, male transgenic mice over-expressing a high copy number (25 copies) of mutated human SOD1 gene with a G93A point mutation, i.e., B6SJL-TgN [SOD1-G93A]1Gur (G1H-G93A transgenic mice, JR2726; Hemizygote) (Gurney M E, et al., Science, 264, 1772-1775, 1994), were purchased from Jackson Laboratory (Bar Harbor, USA) and used. At the same time, wild-type male mice from the same litter, B6SJL-TgN[SOD1-G93A]1Gur (Wild-type), were also purchased from Jackson Laboratory and used.
The mice were subjected to a clinical symptomatological evaluation everyday. The clinical symptomatological evaluation was performed from one week after the arrival from Jackson Laboratory. […] The day of onset, the survival period and the disease period were indicated by the number of days. In regard to the indication of the number of days of the disease period, one day (one disease day) corresponds to within 24 hours from the onset (the “onset” is determined by the observation of the clinical symptomatological evaluation stage 1), and two days (two disease days) corresponds to more than 24 hours after and within 48 hours from the onset. Subsequent disease days after the onset were determined in the same manner.
The mice were divided into seven experimental groups, to which a placebo, the compound (a), compound (b), compound (c) or allopurinol was administered. That is, the seven groups consist of: an experimental group administered with placebo; a treatment experimental group administered with compound (a) before onset; a treatment experimental group administered with compound (a) after onset; a treatment experimental group administered with compound (b) before onset; a treatment experimental group administered with compound (c) before onset; a treatment experimental group administered with compound (c) after onset; and a treatment group administered with allopurinol before onset. Details of the respective groups will be described in the following.
Ten G1H-G93A transgenic mice were used. From the 80th day after birth, 5 mg/kg of the compound (a) was orally administered everyday. […]
Ten G1H-G93A transgenic mice were used. From the 80th day after birth, 5 mg/kg of the compound (b) was orally administered everyday.
Ten G1H-G93A transgenic mice were used. From the 80th day after birth, 5 mg/kg of the compound (c) was orally administered everyday. […]
Ten G1H-G93A transgenic mice were used. From the 80th day after birth, 5 mg/kg of allopurinol was orally administered everyday.
In regard to the results of the clinical symptomatological evaluation, the day of onset, the survival period (days taken to show quadriplegia and to reach the moribund state), the disease period (days taken to show quadriplegia and to reach the moribund state, from the day of onset), and the time periods for the respective stages of the clinical symptomatological evaluation, were indicated by the average±standard deviation. In regard to the results of the exercise tolerance test, the score values of the respective exercise tolerance tests, including the extension reflex test, inclined plane test, footprint test, rotarod test and beam balance test, were indicated by the average±standard deviation. […]

G1H-G93A transgenic mice [2] = assay: Exercise tolerance test: inclined plane test; format: in vivo, mouse; conditions: for Inclined plane test score: 5 mg/kg oral daily from 80th day (before onset), score 0-3, 5 mg/kg; for effect in inclined plane test as compared to placebo group: 110th, 115th, 120th, 125th and 130th day, 5 mg/kg oral daily from 80th day after birth, Mann-Whitney's U test
Experimental: The following five kinds of exercise tolerance tests were conducted every fifth day from the 70th day after birth to evaluate the ability to exercise in the respective exercise tolerance tests. That is, the days for the exercise tolerance tests were every fifth days, such as the 70th day, 75th day, 80th day, 85th day and so on, after birth. The exercise tolerance tests were conducted throughout the survival period, and the post-mortem evaluation was based on the definitions of the following five kinds of exercise tolerance tests.
The apparatus used in the inclined plane test is an apparatus allowing a wooden board to be fixed at the respective angles of 45°, 65° and 80° from a horizontal plane. A mouse is placed in the posture of head-up position on the wooden board inclined at each angle and the mouse is allowed to maintain this position for 5 seconds without falling downward. In the evaluation method of the inclined plane test for each mouse, the number of seconds (TA seconds: 5 seconds or less) during which the position could be maintained without falling downward is measured at each of the angles (A) of 45°, 65° and 80°, and then the total sum value of the products of the angle (A) and the number of seconds (TA) during which the position could be maintained: Σ [Angle(A)×Time (TA)] is calculated. Since a normal mouse is capable of maintaining the position on the wooden board inclined to the respective angles for 5 seconds, the sum value of Σ [Angle(A)×Time (TA)] will be 80×5+65×5+45×5=950. The evaluation of the inclined plane test for the mouse was performed based on the following criteria: Score 0=950; Score 1=over 550 to less than 950; Score 2=over 225 to 550; and Score 3=225 and below. The post-mortem evaluation of the inclined plane test is defined as score 3.

[3] = 5 mg/kg oral daily from 80th day after birth (before onset)
[4] = 5 mg/kg oral daily from the day of onset (after onset)
[5] = 5 mg/kg oral once a day from 80th day after birth (before onset)
[6] = 5 mg/kg oral once a day from the onset (after onset)

Row | SMILES | time periods for the respective stages in comparison to placebo group (G1H-G93A transgenic mice [1]; [3]) | disease period extending effect in comparison to placebo group (G1H-G93A transgenic mice [1]; [3]) | onset delaying effect in comparison to placebo group (G1H-G93A transgenic mice [1]; [3]) | survival period extending effect in comparison to placebo group (G1H-G93A transgenic mice [1]; [3]) | time periods for the respective stages in comparison to placebo group (G1H-G93A transgenic mice [1]; [4]) | disease period extending effect in comparison to placebo group (G1H-G93A transgenic mice [1]; [4]) | survival period extending effect in comparison to placebo group (G1H-G93A transgenic mice [1]; [4]) | day of onset (G1H-G93A transgenic mice [1]; [5]) [days] | disease period (G1H-G93A transgenic mice [1]; [5]) [days] | survival period (G1H-G93A transgenic mice [1]; [5]) [days] | time period of clinical symptomatological stage 1 (G1H-G93A transgenic mice [1]; [5]) [days] | time period of clinical symptomatological stage 2 (G1H-G93A transgenic mice [1]; [5]) [days] | time period of clinical symptomatological stage 3 (G1H-G93A transgenic mice [1]; [5]) [days] | time period of clinical symptomatological stage 4 (G1H-G93A transgenic mice [1]; [5]) [days] | time period of clinical symptomatological stage 5 (G1H-G93A transgenic mice [1]; [5]) [days] | day of onset (G1H-G93A transgenic mice [1]; [6]) [days] | disease period (G1H-G93A transgenic mice [1]; [6]) [days] | survival period (G1H-G93A transgenic mice [1]; [6]) [days] | time period of clinical symptomatological stage 1 (G1H-G93A transgenic mice [1]; [6]) [days] | time period of clinical symptomatological stage 2 (G1H-G93A transgenic mice [1]; [6]) [days] | other results
1 | Cc1nc(-c2ccc(OCC(C)C)c(C#N)c2)sc1C(=O)O [compound (c), 2-[3-cyano-4-(2-methylpropoxy)phenyl]-4-methyl-5-thiazolecarboxylic acid] | extended period of the respective stages with significant difference | significant extension of the disease period | significant delaying of the day of onset | significant extension of the survival period | extended period of stage 3 (P<0.05, Mann-Whitney's U test) and stage 4 (P<0.05, Mann-Whitney's U test) with significant differences | disease period extending effect | survival period extending effect | 112.0 ± 4.6 | 25.4 ± 3.2 | 136.4 ± 3.3 | 7.5±0.9 | 6.7±1.2 | 5.4±1.1 | 3.9±1.1 | 1.9±0.3 | 100.7 ± 4.3 | 24.2 ± 3.2 | 123.9 ± 3.2 | 7.6±1.2 | 6.2±0.8 | time period of clinical symptomatological stage 3 (G1H-G93A transgenic mice [1]; [6]): 5.4±1.1 days; time period of clinical symptomatological stage 4 (G1H-G93A transgenic mice [1]; [6]): 3.5±0.5 days; time period of clinical symptomatological stage 5 (G1H-G93A transgenic mice [1]; [6]): 1.5±0.5 days; Inclined plane test score (G1H-G93A transgenic mice [2]; 70th day after birth): 0.0±0.0; Inclined plane test score (G1H-G93A transgenic mice [2]; 75th day after birth): 0.0±0.0; Inclined plane test score (G1H-G93A transgenic mice [2]; 80th day after birth): 0.0±0.0; Inclined plane test score (G1H-G93A transgenic mice [2]; 85th day after birth): 0.0±0.0; Inclined plane test score (G1H-G93A transgenic mice [2]; 90th day after birth): 0.0±0.0; Inclined plane test score (G1H-G93A transgenic mice [2]; 95th day after birth): 0.0±0.0; Inclined plane test score (G1H-G93A transgenic mice [2]; 100th day after birth): 0.0±0.0; Inclined plane test score (G1H-G93A transgenic mice [2]; 105th day after birth): 0.0±0.0; Inclined plane test score (G1H-G93A transgenic mice [2]; 110th day after birth): 0.0±0.0; effect in inclined plane test as compared to placebo group (G1H-G93A transgenic mice [2]): significant effects; Inclined plane test score (G1H-G93A transgenic mice [2]; 115th day after birth): 0.1±0.3; Inclined plane test score (G1H-G93A transgenic mice [2]; 120th day after birth): 0.8±0.6; Inclined plane test score (G1H-G93A transgenic mice [2]; 125th day after birth): 1.2±0.8; Inclined plane test score (G1H-G93A transgenic mice [2]; 130th day after birth): 2.3±0.7; Inclined plane test score (G1H-G93A transgenic mice [2]; 135th day after birth): 2.9±0.3; Inclined plane test score (G1H-G93A transgenic mice [2]; 140th day after birth): 3.0±0.0
2 | CC(C)(C)COc1ccc(-n2cc(C(=O)O)cn2)cc1C#N [compound (a), 1-[3-cyano-4-(2,2-dimethylpropoxy)phenyl]-1H-pyrazole-4-carboxylic acid] | extended period of respective stages with significant difference | significant extension of the disease period | significant delaying of the day of onset | significant extension of the survival period | extended period of stage 3 (P<0.05, Mann-Whitney's U test) and stage 4 (P<0.05, Mann-Whitney's U test) with significant differences | significant extension of the disease period | significant extension of the survival period | 113.0 ± 4.8 | 24.9 ± 3.1 | 136.9 ± 3.8 | 7.5±0.7 | 6.6±1.2 | 5.4±1.1 | 3.6±0.7 | 1.8±0.4 | 99.8 ± 2.4 | 23.9 ± 1.7 | 122.7 ± 2.1 | 7.3±0.7 | 6.0±0.7 | time period of clinical symptomatological stage 3 (G1H-G93A transgenic mice [1]; [6]): 5.3±0.9 days; time period of clinical symptomatological stage 4 (G1H-G93A transgenic mice [1]; [6]): 3.5±0.5 days; time period of clinical symptomatological stage 5 (G1H-G93A transgenic mice [1]; [6]): 1.8±0.4 days; Inclined plane test score (G1H-G93A transgenic mice [2]; 70th day after birth): 0.0±0.0; Inclined plane test score (G1H-G93A transgenic mice [2]; 75th day after birth): 0.0±0.0; Inclined plane test score (G1H-G93A transgenic mice [2]; 80th day after birth): 0.0±0.0; Inclined plane test score (G1H-G93A transgenic mice [2]; 85th day after birth): 0.0±0.0; Inclined plane test score (G1H-G93A transgenic mice [2]; 90th day after birth): 0.0±0.0; Inclined plane test score (G1H-G93A transgenic mice [2]; 95th day after birth): 0.0±0.0; Inclined plane test score (G1H-G93A transgenic mice [2]; 100th day after birth): 0.0±0.0; Inclined plane test score (G1H-G93A transgenic mice [2]; 105th day after birth): 0.0±0.0; Inclined plane test score (G1H-G93A transgenic mice [2]; 110th day after birth): 0.0±0.0; effect in inclined plane test as compared to placebo group (G1H-G93A transgenic mice [2]): significant effects; Inclined plane test score (G1H-G93A transgenic mice [2]; 115th day after birth): 0.1±0.3; Inclined plane test score (G1H-G93A transgenic mice [2]; 120th day after birth): 0.4±0.5; Inclined plane test score (G1H-G93A transgenic mice [2]; 125th day after birth): 1.1±0.9; Inclined plane test score (G1H-G93A transgenic mice [2]; 130th day after birth): 2.1±0.9; Inclined plane test score (G1H-G93A transgenic mice [2]; 135th day after birth): 2.7±0.5; Inclined plane test score (G1H-G93A transgenic mice [2]; 140th day after birth): 3.0±0.0
